# PMC6522510 (Nature Communications, 2019)
# Values joined by “and” are separate entries in the source; they are usually repeats but may differ in a detail not shown here. Equal values may be shown once. Read-outs that look alike come from different tables or passages of the source.
# Legend:
# CMS [1] = assay: Secondary dose-response HTS, Cell Titer Glo; format: cell-based, human; details: for EC50: read-out: average effective concentration, CMS
# U937 = assay: Secondary dose-response HTS, Cell Titer Glo; format: cell-based, human; details: secondary high-throughput screen, U937; for EC50: read-out: average effective concentration, U937
# ML2 = assay: Secondary dose-response HTS, Cell Titer Glo; format: cell-based, human; details: secondary high-throughput screen, ML-2, read-out: average effective concentration, ML-2
# MV4-11 [2] = assay: Secondary dose-response HTS, Cell Titer Glo; format: cell-based, human; details: secondary high-throughput screen, MV4-11; for EC50: read-out: average effective concentration, MV4-11
# MOLM-13 = assay: Secondary dose-response HTS, Cell Titer Glo; format: cell-based, human; details: secondary high-throughput screen, MOLM-13; for EC50: read-out: average effective concentration, MOLM-13
# CHRF288-11 [3] = assay: Secondary dose-response HTS, Cell Titer Glo; format: cell-based, human; details: secondary high-throughput screen, CHRF288-11; for EC50: read-out: average effective concentration, CHRF288-11
# CMK [4] = assay: Secondary dose-response HTS, Cell Titer Glo; format: cell-based, human; details: CMK; for EC50: read-out: average effective concentration, CMK
# M07e [5] = assay: cells; design: species or system AML cell lines (8); Secondary HTS, 10-point dose-response in triplicate, Cell Titer Glo viability, four-parameter fit EC50; details: M-07e, 72 h, read-out: M07e
# CMS [6] = tested on: CMS; design: species or system AML cell lines (8); Primary HTS, single concentration about 10 uM, Cell Titer Glo viability; log10 luminescence, per cent inhibition relative to cycloheximide control; details: 72 h, relative to cycloheximide control, log10 luminescence, inhibitor, CMS %inh, 10 µM
# MV4-11 [7] = tested on: MV4-11; design: species or system AML cell lines (8); Primary HTS, single concentration about 10 uM, Cell Titer Glo viability; log10 luminescence, per cent inhibition relative to cycloheximide control; details: 72 h, relative to cycloheximide control, log10 luminescence, inhibitor, MV4-11 %inh, 10 µM
# ML-2 = tested on: ML-2; design: species or system AML cell lines (8); Primary HTS, single concentration about 10 uM, Cell Titer Glo viability; log10 luminescence, per cent inhibition relative to cycloheximide control; details: 72 h, relative to cycloheximide control, log10 luminescence, inhibitor, ML-2 %inh, 10 µM
# CMK [8] = tested on: CMK; design: species or system AML cell lines (8); Primary HTS, single concentration about 10 uM, Cell Titer Glo viability; log10 luminescence, per cent inhibition relative to cycloheximide control; details: 72 h, relative to cycloheximide control, log10 luminescence, inhibitor, CMK %inh, 10 µM
# CHRF288-11 [9] = tested on: CHRF288-11; design: species or system AML cell lines (8); Primary HTS, single concentration about 10 uM, Cell Titer Glo viability; log10 luminescence, per cent inhibition relative to cycloheximide control; details: 72 h, relative to cycloheximide control, log10 luminescence, inhibitor, CHRF288-11 %inh, 10 µM
# M07e [10] = tested on: M07e; design: species or system AML cell lines (8); Primary HTS, single concentration about 10 uM, Cell Titer Glo viability; log10 luminescence, per cent inhibition relative to cycloheximide control; details: 72 h, relative to cycloheximide control, log10 luminescence, inhibitor, M07e %inh, 10 µM
# [11] = secondary high-throughput screen, CMS
# [12] = secondary high-throughput screen
# [13] = Homo sapiens, HTS, secondary high-throughput screen, CMS
# [14] = Homo sapiens, secondary high-throughput screen
"EC50 (U937; Homo sapiens, U-937) [nM]",EC50 (MV4-11 [2]; Homo sapiens) [nM],EC50 (MOLM-13; Homo sapiens) [nM],SMILES,EC50 (CMS [1]; [13]) [nM],EC50 (M07e [5]) [nM],EC50 (ML2; Homo sapiens) [nM],"EC50 (CHRF288-11 [3]; Homo sapiens, HTS) [nM]",EC50 (CMK [4]; [14]) [nM],"EC50 (CMS [1]; Homo sapiens, HTS) [nM]",EC50 (CMK [4]; Homo sapiens) [nM],further results
–,–,–,C[C@H](Oc1cc(-c2cnn(C3CCNCC3)c2)cnc1N)c1c(Cl)ccc(F)c1Cl [(S)-CRIZOTINIB],–,–,–,–,–,–,–,"EC50 (CMS [1]; [11]): 8300 nM; average effective concentration, U937 (U937): Inactive; EC50 (ML2): 5000 nM; EC50 (MV4-11 [2]): 3900 nM; EC50 (MOLM-13): 3900 nM; EC50 (CHRF288-11 [3]): 7800 nM; EC50 (CMK [4]; [12]): 4200 nM"
–,–,–,O=C(O)CC([S-])C(=O)O.[Au+] (centres unmarked) [AUROTHIOMALATE],–,–,–,–,–,–,–,"average effective concentration, CMS (CMS [1]; [11]): Inactive; average effective concentration, U937 (U937): Inactive; average effective concentration, MV4-11 (MV4-11 [2]): Inactive; average effective concentration, MOLM-13 (MOLM-13): Inactive; average effective concentration, CHRF288-11 (CHRF288-11 [3]): Inactive; average effective concentration, CMK (CMK [4]; [12]): Inactive"
63,1,> 10000,NC(=O)Nc1cc(-c2cccc(F)c2)sc1C(=O)N[C@H]1CCCNC1 [AZD7762],680,> 10000,26,110,45,–,–,–
30,56,55,COc1c(C)cnc(Cn2cnc3c(Cl)nc(N)nc32)c1C [BIIB021],110,> 10000,83,91,67,–,–,–
3000,1800,1500,Nc1cc(C(F)(F)F)c(-c2cc(N3CCOCC3)nc(N3CCOCC3)n2)cn1 [BUPARLISIB],–,> 10000,1400,5700,–,1600,4100,–
2300,340,890,COCc1c(C(C)C)nc(C(C)C)c(/C=C/[C@@H](O)C[C@@H](O)CC(=O)O)c1-c1ccc(F)cc1 [CERIVASTATIN],6800,> 10000,1600,49,160,–,–,–
–,–,–,C=C1C(=O)O[C@@H]2C[C@@]3(C)CCCC(=C)[C@@H]3C[C@H]12 [ISOHELENIN],–,–,–,–,–,–,–,"EC50 (CMS [1]; [11]): 5400 nM; EC50 (U937): 8200 nM; EC50 (ML2): 6600 nM; average effective concentration, MV4-11 (MV4-11 [2]): Inactive; EC50 (MOLM-13): 5900 nM; EC50 (CHRF288-11 [3]): 6700 nM; EC50 (CMK [4]; [12]): 5200 nM"
5300,1,1,CNC(=O)c1nn(C)c2c1C(C)(C)Cc1cnc(Nc3ccc(N4CCN(C)CC4)cc3)nc1-2 [MILCICLIB],–,> 10000,5600,2200,–,6400,29,–
> 10000,68,5100,CC1(C)CCC(c2ccc(Cl)cc2)=C(CN2CCN(c3ccc(C(=O)NS(=O)(=O)c4ccc(N[C@H](CCN5CCOCC5)CSc5ccccc5)c(S(=O)(=O)C(F)(F)F)c4)cc3)CC2)C1 [NAVITOCLAX],–,> 10000,7100,> 10000,–,29,1200,CMS %inh (CMS [6]): 98.49% and 71.04%; MV4-11 %inh (MV4-11 [7]): 77.41% and 95.61%; ML-2 %inh (ML-2): 57.75% and 49.42%; CMK %inh (CMK [8]): 132.4% and 82.78%; CHRF288-11 %inh (CHRF288-11 [9]): 23.49% and 12.88%; M07e %inh (M07e [10]): 48.21% and 73.78%
